In patent US20260124192A1, “COMPOUNDS, COMPOSITIONS, AND METHODS OF TREATING RNA VIRAL INFECTIONS” (priority 2024, published 2026):

test system: CoV229E; test: Anti-Coronavirus 229E cytoprotection (CPE) assay, MRC-5 (Method 3); assay type: cell-based, human Coronavirus 229E; details: Human coronavirus 229E, MRC5, […], read-out: CoV229E - EC50 (μM), MRC-5; XTT cytoprotection; six days

| SMILES | EC50 [µM] |
| --- | --- |
| Nc1cccc2c1nc(-c1ccc(F)cc1)n2Cc1ccc(OCCN2CCCCC2)cc1 [MCAA-10] | 2.85 |
| O=[N+]([O-])c1cccc2nc(-c3ccc(F)cc3)n(Cc3ccc(OCCN4CCCCC4)cc3)c12 [MCAA-12] | 2.94 |
| COc1ccc(-c2c(Cc3ccc(OCCC4CCCCC4)cc3)c3ccc(OC)cc3n2C)cc1 [MCAA-05] | > 5 |
| O=[N+]([O-])c1cccc2c1nc(-c1ccc(F)cc1)n2Cc1ccc(OCCC2CCCCC2)cc1 [MCAA-15] | > 5 |
| O=[N+]([O-])c1cccc2c1nc(-c1ccc(F)cc1)n2Cc1ccc(OCCN2CCCCC2)cc1 [MCAA-13] | 2.96 |
| Nc1cccc2c1nc(-c1ccc(F)cc1)n2Cc1ccc(OCCC2CCCCC2)cc1 [MCAA-11] | 2.74 |

same assay, conditions: MRC-5; XTT cytoprotection; six days; read-out: CoV229E - EC50

| SMILES | EC50 [µM] |
| --- | --- |
| COc1ccc(-c2c(Cc3ccc(OCCN4CCCCC4)cc3)c3ccc(OC)cc3n2C)cc1 [MCAA-01] | 1.88 |

test system: HCV genotype 1b replicon; test: microbe, parasite or virus in culture; assay type: cell-based, Hepatitis C Virus; details: @ 10 μM; Huh-luc/neo-ET replicon

| SMILES | HCV 1b - percent effect [% @] |
| --- | --- |
| O=[N+]([O-])c1cccc2c1nc(-c1ccc(F)cc1)n2Cc1ccc(OCCC2CCCCC2)cc1 [MCAA-15] | 38 |

same assay, conditions: Hepatitis C virus, Huh-luc/neo-ET, 72 h, read-out: HCV 1b - EC50 (μM)

| SMILES | EC50 [µM] |
| --- | --- |
| CC(C)OC(=O)[C@H](C)N[P@](=O)(OC[C@H]1O[C@@H](n2ccc(=O)[nH]c2=O)[C@](C)(F)[C@@H]1O)Oc1ccccc1 [Sofosbuvir, reference compound] | 0.06 |

same assay, conditions: Hepatitis C virus; Huh-luc/neo-ET replicon; 72 hours; luciferase; read-out: HCV 1b - EC50

| SMILES | EC50 [µM] |
| --- | --- |
| Nc1cccc2c1nc(-c1ccc(F)cc1)n2Cc1ccc(OCCN2CCCCC2)cc1 [MCAA-10] | 7.2 |
| O=[N+]([O-])c1cccc2nc(-c3ccc(F)cc3)n(Cc3ccc(OCCN4CCCCC4)cc3)c12 [MCAA-12] | 2.78 |
| COc1ccc(-c2c(Cc3ccc(OCCC4CCCCC4)cc3)c3ccc(OC)cc3n2C)cc1 [MCAA-05] | > 10 |
| O=[N+]([O-])c1cccc2c1nc(-c1ccc(F)cc1)n2Cc1ccc(OCCN2CCCCC2)cc1 [MCAA-13] | 7.05 |
| Nc1cccc2c1nc(-c1ccc(F)cc1)n2Cc1ccc(OCCC2CCCCC2)cc1 [MCAA-11] | 4.19 |

test system: not listed separately; test: XTT cell viability assay, Huh-luc/neo-ET; assay type: cell-based; details: human, Huh-luc/neo-ET cells, XTT, 72 hours, read-out: HCV 1b - TC50
Description: (§1) Twenty-four hours after seeding the cells, the cell culture supernatant was removed from each well and replaced with 175 μL fresh complete medium minus G418. Test compounds were evaluated at a high-test concentration of 10 μM and five serial half-logarithmic dilutions in three biological replicates. In three biological replicates, Sofosbuvir was evaluated in parallel at a high-test concentration of 1 μM and five serial half-logarithmic dilutions. Compounds were first serially diluted in DMSO to 400× of each final in-well concentration. An intermediate 8× solution was prepared in a complete medium and then added to the cells in a volume of 25 μL per well. A complete medium containing an equal percentage of DMSO (v/v) was added to vehicle-treated control cells. The final DMSO concentration was 0.25% (v/v) for all samples. The cells were incubated for an additional 72 hours at 37° C./5% CO2, then HCV replication was measured by luciferase activity and cell viability was assessed in parallel using an XTT colorimetric assay.
(§2) Huh-luc/neo-ET cell viability was measured at 72 hours after treatment using the tetrazolium dye XTT (2,3-bis(2-methoxy-4-nitro-5-sulfophenyI)-5[(phenylamino)carbonyl]-2H-tetrazolium hydroxide). Mitochondrial enzymes of metabolically active cells metabolize XTT-tetrazolium to a soluble formazan product. XTT solution was prepared fresh at 1 mg/mL in DMEM. Phenazine methosulfate (PMS) solution was prepared at 0.15 mg/mL in PBS and stored in the dark at −20° C. An XTT/PMS stock was prepared immediately before use by adding 40 μL of PMS per ml of XTT solution. Fifty microliters (50 μL) XTT/PMS were added per well, and the cells were incubated for 4 hours at 37° C. The cell culture plates were then sealed with adhesive plate sealers and shaken gently or inverted several times to mix the soluble formazan product. The formazan product was measured spectrophotometrically by absorbance at 450/650 nm on a Vmax plate reader (Molecular Devices). The raw data in Softmax Pro 5.4.2 software was imported into Microsoft Excel for further analysis. Data are presented as absorbance values (450/650 nm) or the percentage of viable cells relative to vehicle-treated control (mean+1—standard deviation, n=3 biological replicates from one independent experiment).

| SMILES | CC50 at 72 h [nM] |
| --- | --- |
| Nc1cccc2c1nc(-c1ccc(F)cc1)n2Cc1ccc(OCCN2CCCCC2)cc1 [MCAA-10] | > 10000 |
| O=[N+]([O-])c1cccc2nc(-c3ccc(F)cc3)n(Cc3ccc(OCCN4CCCCC4)cc3)c12 [MCAA-12] | > 10000 |
| COc1ccc(-c2c(Cc3ccc(OCCC4CCCCC4)cc3)c3ccc(OC)cc3n2C)cc1 [MCAA-05] | > 10000 |
| O=[N+]([O-])c1cccc2c1nc(-c1ccc(F)cc1)n2Cc1ccc(OCCC2CCCCC2)cc1 [MCAA-15] | > 10000 |
| CC(C)OC(=O)[C@H](C)N[P@](=O)(OC[C@H]1O[C@@H](n2ccc(=O)[nH]c2=O)[C@](C)(F)[C@@H]1O)Oc1ccccc1 [Sofosbuvir, reference compound] | > 1000 |
| O=[N+]([O-])c1cccc2c1nc(-c1ccc(F)cc1)n2Cc1ccc(OCCN2CCCCC2)cc1 [MCAA-13] | > 10000 |
| Nc1cccc2c1nc(-c1ccc(F)cc1)n2Cc1ccc(OCCC2CCCCC2)cc1 [MCAA-11] | 5820 |

test system: Huh-luc/neo-ET cells; test: XTT cell viability assay, Huh-luc/neo-ET; assay type: cell-based; details: XTT, 72 hours, read-out: HCV 1b - TC50
Description: as §1, §2

| SMILES | CC50 [nM] |
| --- | --- |
| COc1ccc(-c2c(Cc3ccc(OCCN4CCCCC4)cc3)c3ccc(OC)cc3n2C)cc1 [MCAA-01] | > 10000 |

test system: MCF7 wild-type cell lines; test: MCF7 growth inhibition assay (Cell Titre Glo 2.0); assay type: cell-based; details: Homo sapiens, MCF7, 120 h, read-out: MCF-7 IC50 (μM)
Description: The growth inhibition properties of inhibitors on MCF7 wild-type cell lines were evaluated using the Cell Titre Glo 2.0 cell viability reagent. The assay utilized 384-well black clear bottom plates with 20 μl of MCF7 wild-type cell suspension mixed with reference/test compounds and 20 μl of Cell Titre Glo 2.0 reagent. Cells were seeded at a density of 1000 cells/well in DMEM High Glucose culture media+10% Fetal Bovine Serum (FBS). Staurosporine and Camptothecin served as positive controls for confirming cytotoxicity at a concentration of 30 μM, and vehicle control of 1% DMSO was used to standardize conditions across all test points. The assay and culture media both contained 1% DMSO. Assays were conducted in duplicate for each concentration of the test compounds. The incubation period for the assay was set at 120 hours, after which growth inhibition was assessed. Using a multi-mode reader, the assay readout was based on luminescence measured in Relative Light Units (RLUs). The viability luminescence signal was monitored continually from the same wells over an extended period, allowing for detailed analysis of cell viability. Measurements were taken using an integration time ranging from 0.25 to 1 second across plates designated for various time points.
Cells were maintained and seeded in 384 […] plates, maintaining 1000 cells/well. Seeded plates were incubated at 37° C., 5% CO2 for 16-18 hours to ensure optimal cell adherence and growth. Post-incubation, reference, and test compounds were added carefully to the wells for further processing. Plates were incubated again at 37° C., 5% CO2 for 120 hours (5 days) to allow compound effects. This was followed by the addition of CTG reagent as per the kit's instruction protocol for 30 minutes and RLU data to be recorded. Post plate read data to be analyzed using GraphPad Prism for software IC50 value generation.
Next, the NCEs were tested for selective estrogen regulation modulation activity by using a growth inhibition assay. The assay is performed on MCF7 cells, which are derived from a hormone-dependent breast cancer that stops growing upon estrogen receptor inhibition. […] Staurosporine and Camptothecin served as positive controls for cytotoxicity and 1% DMSO as the vehicle control.

| SMILES | IC50 [µM] |
| --- | --- |
| C[C@]12CC[C@@H]3c4ccc(O)cc4C[C@@H](CCCCCCCCC[S+]([O-])CCCC(F)(F)C(F)(F)F)[C@H]3[C@@H]1CC[C@@H]2O (stereo partly shown) [Fulvestrant, reference compound] | 0.00089 |

same assay, conditions: Homo sapiens, MCF7, read-out: IC50, MCF7 growth inhibition

| SMILES | IC50 [µM] |
| --- | --- |
| C[C@]12CC[C@@H]3c4ccc(O)cc4C[C@@H](CCCCCCCCC[S+]([O-])CCCC(F)(F)C(F)(F)F)[C@H]3[C@@H]1CC[C@@H]2O (stereo partly shown) [Fulvestrant, reference compound] | 0.00089 |

same assay, conditions: Homo sapiens; MCF7 growth inhibition; 120 hours; read-out: MCF-7 IC50

| SMILES | IC50 [µM] |
| --- | --- |
| Nc1cccc2c1nc(-c1ccc(F)cc1)n2Cc1ccc(OCCN2CCCCC2)cc1 [MCAA-10] | 0.53 |
| O=[N+]([O-])c1cccc2nc(-c3ccc(F)cc3)n(Cc3ccc(OCCN4CCCCC4)cc3)c12 [MCAA-12] | 1.15 |
| COc1ccc(-c2c(Cc3ccc(OCCC4CCCCC4)cc3)c3ccc(OC)cc3n2C)cc1 [MCAA-05] | > 10 |
| O=[N+]([O-])c1cccc2c1nc(-c1ccc(F)cc1)n2Cc1ccc(OCCC2CCCCC2)cc1 [MCAA-15] | 0.57 |
| O=[N+]([O-])c1cccc2c1nc(-c1ccc(F)cc1)n2Cc1ccc(OCCN2CCCCC2)cc1 [MCAA-13] | 2.47 |
| Nc1cccc2c1nc(-c1ccc(F)cc1)n2Cc1ccc(OCCC2CCCCC2)cc1 [MCAA-11] | 1.66 |

test system: not listed separately; test: Cytotoxicity, XTT, MRC-5; details: human

| SMILES | CC50 at 6 days [nM] |
| --- | --- |
| Nc1cccc2c1nc(-c1ccc(F)cc1)n2Cc1ccc(OCCN2CCCCC2)cc1 [MCAA-10] | > 5000 |
| O=[N+]([O-])c1cccc2nc(-c3ccc(F)cc3)n(Cc3ccc(OCCN4CCCCC4)cc3)c12 [MCAA-12] | > 5000 |
| COc1ccc(-c2c(Cc3ccc(OCCC4CCCCC4)cc3)c3ccc(OC)cc3n2C)cc1 [MCAA-05] | > 5000 |
| O=[N+]([O-])c1cccc2c1nc(-c1ccc(F)cc1)n2Cc1ccc(OCCC2CCCCC2)cc1 [MCAA-15] | > 5000 |
| O=[N+]([O-])c1cccc2c1nc(-c1ccc(F)cc1)n2Cc1ccc(OCCN2CCCCC2)cc1 [MCAA-13] | > 5000 |
| Nc1cccc2c1nc(-c1ccc(F)cc1)n2Cc1ccc(OCCC2CCCCC2)cc1 [MCAA-11] | > 5000 |

test system: MRC-5 cells; test: Cytotoxicity, XTT, MRC-5; details: read-out: CoV229E - TC50; MRC-5; XTT; six days

| SMILES | CC50 [nM] |
| --- | --- |
| COc1ccc(-c2c(Cc3ccc(OCCN4CCCCC4)cc3)c3ccc(OC)cc3n2C)cc1 [MCAA-01] | > 5000 |
